# Laboratory results taken from patent US11045519B2, “Arginine-rich polypeptide compositions and methods of using same” (UNM Rainforest Innovations, priority 2017, dated 2021).
# Where a SMILES comes first, the peptide text is derived from it. Where no end group is shown, it is not given here. The star is where a group is joined. Decanoyl = CCCCCCCCCC(=O)*; CH2Cl = ClC*
# Experiments:
# recombinant His-furin = molecular target: T1, recombinant His-furin (Homo sapiens, UniProt P09958); test: Furin cleavage of HPV16 L2 capsid protein (immunoblot); type: biochemical; conditions: 30 μM, 3 nM His-furin, 2 h 37° C.
# T1 construct: His
# T1 sequence (P09958 108-794): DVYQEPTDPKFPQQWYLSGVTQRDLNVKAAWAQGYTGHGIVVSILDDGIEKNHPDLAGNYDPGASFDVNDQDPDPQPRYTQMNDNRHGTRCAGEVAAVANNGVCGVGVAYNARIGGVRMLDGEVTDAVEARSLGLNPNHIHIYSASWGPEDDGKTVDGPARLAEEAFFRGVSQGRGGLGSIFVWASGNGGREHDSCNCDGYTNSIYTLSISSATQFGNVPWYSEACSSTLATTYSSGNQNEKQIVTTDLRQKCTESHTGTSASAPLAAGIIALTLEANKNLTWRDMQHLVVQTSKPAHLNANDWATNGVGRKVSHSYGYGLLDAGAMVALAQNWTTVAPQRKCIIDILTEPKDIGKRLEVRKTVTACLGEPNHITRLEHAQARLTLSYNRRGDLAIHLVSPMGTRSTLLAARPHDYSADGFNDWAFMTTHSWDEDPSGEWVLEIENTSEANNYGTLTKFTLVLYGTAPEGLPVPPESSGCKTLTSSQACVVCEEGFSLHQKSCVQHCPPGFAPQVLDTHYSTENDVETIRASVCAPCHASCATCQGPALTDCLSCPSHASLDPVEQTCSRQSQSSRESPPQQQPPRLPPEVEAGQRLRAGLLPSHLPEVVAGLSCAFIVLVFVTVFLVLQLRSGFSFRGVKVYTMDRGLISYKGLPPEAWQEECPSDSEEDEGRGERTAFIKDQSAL
# Experimental: FIG. 9. PolyR inhibits HPV16 L2 protein cleavage by furin and induces accumulation of internalized virus particles in late endosomal fraction. (A) Equal amount of HPV16 diluted in 50 μl furin assay buffer (1 mM CaCl2), 100 mM HEPES, 0.5% Triton X-100, 1 mM β-mercaptoethanol) was loaded into six tubes, […], in the presence of 1.3 μM furin inhibitor1 (Merck Millipore Corp., Burlington, Mass.), or 1 μM polyR. Samples were mixed with SDS-PAGE sample buffer and boiled before fractionation on 9% gel. Proteins were transferred onto PVDF membranes and after blocking, incubated with affinity-purified rabbit anti-HPV16 polyclonal antibody. Secondary donkey anti-rabbit horseradish peroxidase-coupled antibody was used for detection of HPV16 capsid proteins. (B) HaCaT cells grown on coverslips were incubated with HPV16 PsVs for one hour at 37° C. to initiate virus binding (and partial internalization) before adding 1 μM polyR and further incubated for seven hours. […]
# Cleavage of the L2 minor capsid protein by the cellular pro-protein convertase, furin, is an essential step in infectious entry of HPVs. […] After two hours of incubation, HPV16 cleavage was assessed by immunoblotting using anti-HPV 16 polyclonal antibody. […]
# [1] = system: HPV16 pseudovirions (PsVs); test: HPV16 PsV luciferase infectivity assay, HaCaT cells pretreated with peptide; type: cell-based; conditions: 24 h; for inhibition of HPV16 PsV infection: 6 μM, 30 min pretreatment of HaCaT cells, 300 vge/cell
# Experimental: HaCaT cells were cultured in complete growing medium (CM; Dulbecco's modified Eagle's medium nutrient mixture F-12 HAM (Sigma-Aldrich, St. Louis, Mo.)) supplemented with 10% fetal bovine serum (FBS), amino acids (Sigma-Aldrich, St. Louis, Mo.), 2 mM L-glutamine, 100 U/ml penicillin and 1 μg/ml streptomycin (Sigma-Aldrich, St. Louis, Mo.), as previously described (Patterson et al., 2005. J Virol 79:6838-6847). Semi-confluent cells were pretreated for 30 minutes with arginine-rich peptides dissolved in CM (6 μM gp91dstat, gp91dstat (scramble), R9, and TAT, or 3 polyR) before the exposure to HaCaT cells and 300 vge/cell HPV16 pseudovirions (PsVs) packaging a luciferase reporter plasmid. Infectivity was scored after 24 hours of incubation at 37° C. (i.e., post infection) by Lumat LB9501 (Berthold Technologies GmbH & Co KG, Bad Wildbad, Germany) equipment, using the luciferase assay kit (Promega, Madison, Wis.) according to manufacturer's specification. Raw data were normalized to total cellular protein concentration. Graph summarizes triplicate treatments; error bars represent SEM.
# Fifty percent inhibitory concentration (IC50) of HPV16 PsV infection of HaCaT cells by the compounds. For generation of an inhibitory concentration 50 (IC50) curves, cells were pretreated with the indicated concentration of arginine-rich peptides prior to HPV16 PsV exposure. Infectivity was scored after 24 hours of incubation at 37° C. and the data from two independent duplicate experiments were pooled and analyzed using non-linear regression (curve fit) function of PRISM software (GraphPad Software, Inc., LaJolla, Calif.).
# Semi-confluent HaCaT cells maintained in CM, were pretreated for one hour with PrS dissolved in CM at the 0-5.8 μM concentrations before exposure to HPV16 PsVs (350 vge/cell). Infectivity was scored after 24 hours of incubation at 37° C. using a luminometer (Lumat LB9501, Berthold GmbH & Co., Bad Wildbad, Germany) and luciferase assay (Promega, Madison, Wis.) according to manufacturer's specification. Raw data were normalized to total cellular protein concentration.
# For generation of an inhibitory concentration 50 (IC50) curve for PrS inhibition, data from two independent duplicate experiments was pooled and analyzed using the non-linear regression (curve fit) function of PRISM (GraphPad Software, Inc., La Jolla, Calif.).
# 3 μM PrS incubated for one hour at room temperature with 2 mg/ml high or low molecular weight HA in CM, prior to the addition to HaCaT cells. 350 vge/cell HPV16 PsVs were used for infection of cells in the presence or absence of PrS or HA:PrS complex. Infection was scored after 24 hours as described in FIG. 12.
# HaCaT cells were pretreated with 6 μM concentrations of gp91dstat, gp91dstat (scramble), R9, or TAT, or 3 μM polyR. After 30 minutes of incubation at 37° C., cells were infected with HPV16 pseudovirions (PsVs) at a dose of 300 viral genome equivalents (vge)/cell, and the relative infectivity was quantified after 24 hours compared to infection in untreated cells (FIG. 1). Each treatment was performed in triplicate.
# To evaluate the anti-HPV activity of PrS, HaCaT cells, a keratinocyte-derived cell line, was used as a model for analysis of HPV infection. […]
# Infections were initiated using Luciferase-expressing HPV16 PsVs that were produced, isolated, and quantified as described previously (Surviladze et al., 2012. PLoS Pathogens 8: e1002519; Campos S K and Ozbun M A, 2009. PloS One 4:e4463). […]
# HPV16 PsVs [2] = test: Direct pre-incubation of HPV16 PsVs with peptide, dilution below IC50, then infection of HaCaT cells; type: cell-based; conditions: 1 μM, 1 h 37° C., diluted below IC50, HaCaT cells 24 h
# Experimental: FIG. 3. […] HPV16 PsVs were incubated with 0.3 μM polyR for one hour at 37° C. The virus-polyR mixture was diluted with CM to reduce the polyR concentration below the IC50 value prior to incubation with HaCaT cells for 24 hours (HPV16-polyR). The control included untreated HPV16 PsVs (HPV16) added to HaCaT cells. Infection was measured after 24-hour incubation.
# FIG. 15. Direct interaction of PrS to HPV16 PsVs. HPV16 PsVs were incubated with 1 μM PrS or HA:PrS complex for one hour at 37° C. Virus-PrS/or HA:PrS mixture was diluted with CM in order to reduce the PrS concentration below the IC50 value, and incubated with HaCaT cells for 24 hours. The control included untreated HPV16 PsVs. Infection was measured after 24 hours incubation as described in FIG. 12.
# Typically, direct interaction of cationic inhibitors with the viral capsids of non-enveloped viruses (including HPV) is sufficient for antiviral activity. To determine whether polyR inhibited HPV16 infectivity by direct interaction with viral capsids, HPV16 PsVs were incubated with […] for one hour at 37° C. The virus-polyR mixture was diluted 1500-fold to reduce the polyR concentration below the IC50 value, then incubated with HaCaT cells. The control included cells exposed to HPV PsVs that were not treated with polyR. […]
# HPV16 PsVs [3] = test: HPV16 PsV binding to HaCaT cells at 4° C. (L1 immunoblot / immunofluorescence); type: cell-based; conditions: 4° C. 1 h
# Experimental: FIG. 4. PolyR treatment of host cells inhibits HPV16 binding to cells. (A) Confluent HaCaT cell monolayers were treated with 1 μM polyR (in CM) for 30 minutes, before adding 100 vge/cell HPV16 PsVs, and incubated at 4° C. for one hour (to promote binding but prevent virus internalization). After washing out of unbound virus, cells were lysed (25 mM Tris pH7.5, 150 mM NaCl, 1% Triton-X100 supplemented with protease inhibitors) and centrifuged at 16,000×g for 10 minutes. Protein concentrations in supernatant were measured using the Bradford method (Bio-Rad Laboratories, Inc., Hercules, Calif.). Samples were boiled in SDS-containing sample buffer, and aliquots containing equal amount of protein ([…] to 200 μg) separated by SDS-polyacrylamide gel electrophoresis (SDS-PAGE), using 10% gel. Proteins were transferred onto polyvinylidene difluoride (PVDF) membranes and subjected to analysis using anti-HPV16 L1 primary antibody (Camvir-1, sc-47699, Santa Cruz Biotechnology, Inc., Dallas, Tex.;1:5000 dilution) for detection of HPV16 major capsid protein, L1. Proteins were visualized by enhanced chemiluminescence (SUPERSIGNAL West Pico Chemiluminescent Substrate, Thermo Fisher Scientific, Inc., Waltham, Mass.) and exposed to film (Phenix Research Products, Candler, N.C.). (B) Immunofluorescence assays were performed essentially as described previously (Surviladze et al., 2012. PLoS Pathogens 8:e1002519). HaCaT cells were grown on coverslips at approximately 50% confluence and treated with 3 μM polyR for 30 minutes at 37° C. before the addition of 1000 vge of HPV16 PsVs per coverslip. Cells were incubated for one hour at 4° C. and washed several times with PBS, before the fixation with 4% paraformaldehyde (PFA). BSA-blocked cells were incubated with rabbit polyclonal HPV16 antibody (antibody was affinity-purified from rabbit anti-HPV VLP antisera). PBS-washed slides were incubated with donkey AF488-conjugated anti-rabbit IgG secondary antibody; phalloidin-rhodamine (Cytoskeleton, Inc., Denver, Colo.) was used for actin staining. After extensive washing with PBS, cells were mounted in Gold Antifade and immunofluorescent (IF) images were captured by confocal photo-microscopy.
# (§1) (A) HPV16 PsVs were bound to HaCaT cells (one hour at 4° C.), before the addition of […]. After a one-hour incubation at 4° C., unbound virus was washed out, cells were lysed and analyzed for the content of HPV L1 protein. (B) HaCaT cells were exposed to HPV 16 PsV at 4° C. in the absence of polyR, simultaneously with polyR (0 h), or one hour after polyR treatment (+1 h). After extensive washing with PBS, cells were lysed and analyzed for the content of HPV16 L1 protein.
# FIG. 16. PrS pretreated cells binding of HPV16. Confluent HaCaT cell monolayers were treated with 1 μM PrS (in CM) before the addition of 200 vge/cell HPV16 PsVs and incubated at 4° C. for one hour (conditions to prevent virus internalization). After washing out of unbound virus, cells were lysed (25 mM Tris pH7.5, 150 mM NaCl, 1% Triton-X100 supplemented with protease inhibitors) and centrifuged at 16,000×g for 10 minutes. Protein concentrations in supernatant were measured using the Bradford method (Bio-Rad Laboratories, Inc., Hercules, Calif.). Samples were boiled in SDS-containing sample buffer, and aliquots containing equal amount of protein (˜50 μg to 200 μg) separated by SDS-polyacrylamide gel electrophoresis (SDS-PAGE) using 10% gel. […]
# HPV16 PsVs [4] = test: Dissociation of cell-bound HPV16 PsVs from HaCaT cells (L1 immunoblot); type: cell-based; conditions: 5 μM added to HPV-bound HaCaT cells, 1 h 4° C.
# Experimental: as §1
# FIG. 19. […] HPV16 PsVs were bound to HaCaT cells (one hour in cold), before the addition of 5 μM PrS. After a one-hour incubation at 4° C., unbound virus was washed out, cells were lysed, and HPV L1 protein content was measured as described in FIG. 16.
# To determine whether polyR could cause HPV16 dissociation from cells, HPV16 PsVs were bound to HaCaT cells for one hour at 4° C. After washing away unbound virus, HPV-bound cells were incubated with 3 μM polyR for one hour at 4° C.; control cells were untreated. Cells were lysed and analyzed for HPV L1 protein content. […]
# The post-attachment inhibitory effects of PrS could be due the displacement of capsids from the cell surface. […] After a one-hour incubation at 4° C., unbound virus was washed out, cells were lysed, and the HPV L1 protein content was analyzed.
compound,measurement,setting,value
"CCCCCCCCCC(=O)N[C@@H](CCCN=C(N)N)C(=O)N[C@H](C(=O)N[C@@H](CCCCN)C(=O)N[C@@H](CCCN=C(N)N)C(=O)CCl)C(C)C [FI, reference compound] (Decanoyl-RVKR-CH2Cl)",furin cleavage of L2 capsid protein,recombinant His-furin,inhibited cleavage of the L2 capsid protein
"N=C(N)NCCC[C@H](NC(=O)[C@H](CCCNC(=N)N)NC(=O)[C@H](CCCNC(=N)N)NC(=O)[C@H](CCCNC(=N)N)NC(=O)[C@H](CCCNC(=N)N)NC(=O)[C@H](CCCNC(=N)N)NC(=O)[C@H](CCCNC(=N)N)NC(=O)[C@H](CCCNC(=N)N)NC(=O)[C@@H](N)CCCNC(=N)N)C(=O)O [R9, arginine nonapeptide]",inhibition of HPV16 PsV infection,[1],66%
TAT: YGRKKRRQRRR; arginine-rich fragment of the HIV transactivator protein,inhibition of HPV16 PsV infection,[1],44%
"protamine sulfate (MPRRRRSSSRPVRRRRRPRVSRRRRRRGGRRRR; also: sulfate salt; listed as Oncorhynchus keta) [PrS, sulfate form of salmon protamine, FDA approved arginine-rich polypeptide, reference compound]",IC50,"[1]; 1 h pretreatment, 350 vge/cell, read-out: IC50 of HPV16 infection in HaCaT cells",~100 nM
same,effect of pre-incubation of HPV16 PsVs on infection,HPV16 PsVs [2],does not inhibit infection
same,HPV16 binding to pretreated cells (L1 Western blot),"HPV16 PsVs [3]; 1 μM in CM, 200 vge/cell",almost completely blocked HPV16 binding
same,inhibition of HPV16 binding at acidic conditions,"HPV16 PsVs [3]; pH 4.5, 2 μM PrS (complex: 0.1% HMW HA:2 μM PrS)",60%
same,release of HPV16 from membrane,HPV16 PsVs [4],did not induce HPV16 release from membrane
